We go through four molecules from publication PMC6509195 (mBio, 2019).

Series [1] addresses T1, CsiD (PP_2909) (Pseudomonas putida, UniProt Q88IU0).
T1 construct: gene glaH
T1 sequence (Q88IU0 1-325): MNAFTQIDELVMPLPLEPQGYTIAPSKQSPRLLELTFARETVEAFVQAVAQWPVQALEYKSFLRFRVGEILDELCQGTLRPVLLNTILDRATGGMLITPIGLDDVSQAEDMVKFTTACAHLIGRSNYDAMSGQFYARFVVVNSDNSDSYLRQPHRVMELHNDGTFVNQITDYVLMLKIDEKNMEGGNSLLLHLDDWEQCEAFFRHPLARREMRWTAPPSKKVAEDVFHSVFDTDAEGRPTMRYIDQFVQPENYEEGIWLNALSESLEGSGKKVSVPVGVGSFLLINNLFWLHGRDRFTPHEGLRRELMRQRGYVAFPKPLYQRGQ
Kind of series: LC-TOF detection of L-2HG. The conditions noted are these: 2-oxoacid co-substrate in place of 2KG; glutarate, FeSO4, HEPES pH 7, 22°C. It is filed as biochemical.

In series [2] the target is T2, CsiD homolog from E. coli (Escherichia coli, UniProt P76621).
T2 construct: gene glaH
T2 sequence (P76621 1-325): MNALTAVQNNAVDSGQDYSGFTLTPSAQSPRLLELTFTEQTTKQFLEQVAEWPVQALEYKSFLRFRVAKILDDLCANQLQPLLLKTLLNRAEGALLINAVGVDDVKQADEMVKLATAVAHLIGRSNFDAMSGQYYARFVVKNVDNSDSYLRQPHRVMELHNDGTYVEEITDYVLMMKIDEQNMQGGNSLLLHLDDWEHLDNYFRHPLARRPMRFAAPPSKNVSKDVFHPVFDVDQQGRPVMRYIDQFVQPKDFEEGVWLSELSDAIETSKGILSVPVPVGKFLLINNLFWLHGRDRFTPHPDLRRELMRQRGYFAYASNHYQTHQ
In words: LC-TOF detection of L-2HG. The class given is biochemical. The conditions noted are these: 2-oxoacid co-substrate in place of 2KG; glutarate, FeSO4, HEPES pH 7, 22°C.

In series [3] the target is T1, CsiD (PP_2909). Kind of series: LC-TOF / HPLC product analysis. It is filed as biochemical. The conditions noted are these: 2KG co-substrate, 25 μM FeSO4, ascorbate, DTT, 50 mM HEPES pH 7, 22°C, 3 h.
Series [4] deals with T2, CsiD homolog from E. coli. Kind of series: LC-TOF product analysis. It is filed as biochemical. As to conditions: 2KG co-substrate, FeSO4, HEPES pH 7, 22°C.
The target of series [5] is T3, PP_4108 (Pseudomonas putida, UniProt Q88FI7).
T3 sequence (Q88FI7 1-416): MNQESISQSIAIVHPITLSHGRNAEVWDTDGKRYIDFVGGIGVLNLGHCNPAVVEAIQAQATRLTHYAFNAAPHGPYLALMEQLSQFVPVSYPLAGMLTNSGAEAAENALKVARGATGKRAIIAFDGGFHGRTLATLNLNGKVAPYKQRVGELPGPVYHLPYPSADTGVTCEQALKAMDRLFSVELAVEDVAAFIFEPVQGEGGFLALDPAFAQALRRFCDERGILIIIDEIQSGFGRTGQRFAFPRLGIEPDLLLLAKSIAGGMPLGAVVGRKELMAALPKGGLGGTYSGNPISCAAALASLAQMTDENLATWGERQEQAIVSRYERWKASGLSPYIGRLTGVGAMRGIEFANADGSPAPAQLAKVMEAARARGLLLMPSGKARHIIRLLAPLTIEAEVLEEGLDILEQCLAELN
Kind of series: colorimetric glutamate assay of transamination. The class given is biochemical. The conditions noted are these: 2KG as amino acceptor, PLP, 50 mM HEPES pH 7.5, 30°C, 16 h.

Substrate in series [6]: O=C(O)CCCC(=O)C(=O)O
In words: purified protein. It is filed as biochemical, Pseudomonas putida. The conditions noted are these: 100 mM Tris-HCl pH 7, 10 mM MgCl2, 50 μM FeCl2, Fe(II)-dependent.

Consider `O=C(O)CCCC(=O)C(=O)O` [2-oxoadipate], for which the “LC-TOF detection of L-2HG” value in series [1] is “all three CsiD homologs could utilize both 2OA and 2KG, but not oxaloacetate”; in series [2] it was “all three CsiD homologs could utilize both 2OA and 2KG, but not oxaloacetate”.

As for `O=C(O)CCCC(=O)O` [glutarate], in series [3], the “LC-TOF / HPLC product analysis” value is “purified csiD and confirmed that it hydroxylated glutarate in a 2KG-dependent manner”. In addition, the LC-TOF product analysis result in series [4] is on record as “found that only glutarate served as a hydroxylation substrate”.

As to `N[C@@H](CCCC(=O)O)C(=O)O` [L-2-aminoadipate], the relative activity entry in series [5] is on record as “The enzyme was most active on L-2AA”.

B1: PP_5260 (Pseudomonas putida KT2440) (protein)
chain: MPANDFVSPDSIRAQFSAAMSLMYKQEVPLYGTLLELVSEINQQVMAQQPEVAEALRWTGEIERLDQERHGAIRVGTAEELATIARLFAVMGMQPVGYYDLSSAGVPVHSTAFRAVHEQSLHVSPFRVFTSLLRLELIDNPQLRELAQSILAKRQIFTSRALELIAQCEREGGLDAADAETFVQEALHTFRWHQDATVTAEQYQQLHDQHRLIADVVAFKGPHINHLTPRTLDIDAIQLGMPAKGIPPKAVVEGPPTRRHPILLRQTSFKALQETVAFRDQQGREGSHTARFGEIEQRGAALTPKGRQLYDKLLDATRVALGGAPAEANAERYMALLQANFAEFPDDLAQMREQGLAYFRYFATEKGLAARDQEGRPTTLQGLIDAGHVHFEALVYEDFLPVSAAGIFQSNLGDDAQAEYGSNANREAFEAALGLQVQDELALYAQSERRSLQACAQALNLGSM
Turning to B1, in series [6], the Km is on record as 0.06 (± 0.03) mM.
